Measurements published in PubChem BioAssay (NCI).
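Grown in 96-well plates, cells were treated for 48 hours with each compound at five concentrations. Insufficient inhibition: endpoint recorded as highest concentration tested. Abbreviation: GI50, concentration required for 50% inhibition of growth. At the TGI there is no net growth.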 Where a SMILES comes first, the peptide text is derived from it. The star is where a group is joined. OBn = c1ccc(CO*)cc1

Legend:
Assay in all cases: growth of human tumour cells (NCI), 48 h
NCI-H23 lung = tested on: NCI-H23 lung
PC-3 prostate = tested on: PC-3 prostate
KM12 colon = tested on: KM12 colon
DU-145 prostate = tested on: DU-145 prostate
NCI-H522 lung = tested on: NCI-H522 lung
SK-MEL-2 melanoma = tested on: SK-MEL-2 melanoma
SN12C renal = tested on: SN12C renal
EKVX NSCLC = tested on: EKVX NSCLC
T-47D breast = tested on: T-47D breast
SF-539 CNS = tested on: SF-539 CNS
BT-549 breast = tested on: BT-549 breast

| SMILES | GI50 (NCI-H23 lung) [µM] | TGI (NCI-H23 lung) [µM] | GI50 (PC-3 prostate) [µM] | TGI (PC-3 prostate) [µM] | GI50 (KM12 colon) [µM] | TGI (KM12 colon) [µM] | GI50 (DU-145 prostate) [µM] | TGI (DU-145 prostate) [µM] | TGI (NCI-H522 lung) [µM] | GI50 (SK-MEL-2 melanoma) [µM] | TGI (SK-MEL-2 melanoma) [µM] | GI50 (SN12C renal) [µM] | TGI (SN12C renal) [µM] | GI50 (EKVX NSCLC) [µM] | TGI (EKVX NSCLC) [µM] | GI50 (T-47D breast) [µM] | TGI (T-47D breast) [µM] | GI50 (SF-539 CNS) [µM] | TGI (SF-539 CNS) [µM] | TGI (BT-549 breast) [µM] |
| --- | --- | --- | --- | --- | --- | --- | --- | --- | --- | --- | --- | --- | --- | --- | --- | --- | --- | --- | --- | --- |
| CCOn1cc(C2=C(c3c[nH]c4ccccc34)C(=O)NC2=O)c2ccccc21 | < 0.028 | 0.47 | < 0.0389 | 17.3 | < 0.0161 | 2 | 0.163 | 16.9 | > 33.6 | 12.2 | 25.8 | 0.765 | 14.8 | 14.6 | 29.9 | 18.5 | > 100 | < 0.01 | < 0.01 |  |
| CN1CCC/C1=C1\C(=O)c2cccn2C1=O |  | > 100 |  | > 100 |  | > 100 |  | > 100 | > 100 |  | > 100 |  | > 100 |  | > 100 |  | > 100 |  |  | > 100 |
| NC(CCC(=O)OCc1ccccc1)C(=O)NC(CCC(=O)OCc1ccccc1)C(=O)O (stereo unspecified) (H-Glu(OBn)-Glu(OBn)-OH; configuration not given here) |  | > 100 |  | > 100 |  | > 100 |  | > 100 | > 100 |  |  |  | > 100 |  | > 100 |  | > 100 |  |  | > 100 |
| COC(=O)c1c(C(=O)OC)c(C(c2ccccc2)c2ccccc2)n(-c2ccccc2)c1Cl |  | > 10 |  | > 10 |  | > 10 |  | > 10 |  |  |  |  | > 10 |  | > 10 |  | > 10 |  | > 10 | > 10 |
| COc1ccc(N2C(=O)/C(=C\c3cc(OC)c(OC)c(OC)c3)S(=O)(=O)C2c2ccccc2)cc1 (stereo unspecified) |  | > 100 |  |  |  | > 100 |  | > 100 | > 100 |  | 71.1 |  | > 100 |  |  |  | > 100 |  | > 100 | > 100 |
| Cc1ccc(S(=O)(=O)n2cnc(CC(NC(=O)C3CCC(=O)N3C(=O)OCc3ccccc3)C(=O)N3CCCC3C(=O)NN)c2)cc1 (stereo unspecified) |  | > 100 |  | > 100 |  | > 100 |  |  |  |  | > 100 |  | > 100 |  | > 100 |  |  |  |  | > 100 |
| C[C@@H]1OC2(O)[C@@H]3CCCN3C(=O)N(Cc3ccccc3)N2C1=O (stereo partly specified) |  | > 100 |  | > 100 |  | > 100 |  | > 100 |  |  | > 100 |  | > 100 |  | > 100 |  | > 100 |  | > 100 |  |
| CN(CCO)c1nc2c(c(=O)[nH]1)CNCC2 |  | > 100 |  |  |  | > 100 |  |  | > 100 |  | > 100 |  | > 100 |  | > 100 |  |  |  | > 100 |  |
| C=C(Cl)C(Br)(CBr)CCC(Br)C(C)(C)Br (stereo unspecified) |  | > 10 |  | > 10 |  | > 10 |  | > 10 | > 10 |  |  |  | > 10 |  | > 10 |  | > 1 |  | 4.92 | > 10 |
| C=CC1(c2ccc(Br)cc2)OCCCO1 |  | > 100 |  | > 100 |  | > 100 |  | > 100 | > 100 |  | > 100 |  | > 100 |  | > 100 |  | > 100 |  | > 100 |  |
| COC(=O)/C=C(\S/C(=C(/c1ccc(OC)cc1)n1cc(C(=O)OC)c(C(=O)OC)n1)c1ccc(OC)cc1)C(=O)OC |  | > 100 |  | > 100 |  | > 100 |  | 40.3 |  |  | > 100 |  | 51.4 |  | 49.5 |  | 10.2 |  | > 100 | > 100 |
| CC(C)=CCC[C@@H](C)C1=C(Nc2ccccc2)C(O)=C(C)C(=O)C1=O |  | 12.9 |  | > 40.5 |  | 20.7 |  | 28.2 | 16.5 |  | 19.8 |  | 41.6 |  | > 39.4 |  | 32.3 |  |  | 23.1 |
| N#CC1=C(N)Nc2nc3ccccc3n2C1c1ccccc1 (stereo unspecified) |  | > 100 |  | > 100 |  | > 100 |  | > 100 |  |  | > 100 |  | > 100 |  | 57.4 |  | 63.1 |  | > 100 | 62.4 |
| O=C(Nc1ccccc1)C(=O)C(C(=O)c1ccccc1)C(c1ccccc1)c1ccccc1 (stereo unspecified) |  | > 10 |  | > 10 |  |  |  | > 10 |  |  |  |  | > 10 |  | > 10 |  | > 10 |  |  |  |
| N=C(N)C1CN(CC=O)C(=O)NC1=O (stereo unspecified) |  | > 100 |  | > 100 |  |  |  | > 100 |  |  |  |  | > 100 |  | > 100 |  | > 100 |  |  | > 100 |
| C/C(=C/CNc1ncnc2c1ncn2CCC#N)CO |  | > 100 |  | > 100 |  | > 100 |  | > 100 | > 100 |  |  |  | > 100 |  | > 100 |  | > 100 |  | > 100 |  |
| O=Cc1ccc2c(c1)CC1(C2)Cc2ccc(C=O)cc2C1 |  | 49.8 |  | 43.3 |  | 60.4 |  | > 100 | 54.9 |  | 30.8 |  | 64.5 |  | > 100 |  | 71.8 |  | 15.1 |  |
| O=C1/C(=C/c2ccccc2)CCCC/C1=C\c1ccccc1 |  | > 100 |  |  |  | > 100 |  |  |  |  | > 100 |  | > 100 |  | > 100 |  |  |  | > 100 |  |
| COC(=O)c1nc2c3c(cccc3c1C(=O)OC)Nc1ccccc1-2 |  | > 100 |  | 82.1 |  | > 100 |  | > 100 | 41.5 |  | 71.8 |  | > 100 |  | > 100 |  |  |  | > 100 | > 100 |
| O=c1[nH]c2ccsc2c(=O)n1COCc1ccccc1 |  | > 100 |  | > 100 |  | > 100 |  | > 100 | > 100 |  | > 100 |  | > 100 |  | > 100 |  |  |  | > 100 | > 100 |
| Cc1nc2ccc(N=NN(C)C)cc2[nH]1 |  |  |  | > 100 |  | > 100 |  | > 100 | > 100 |  | > 100 |  | > 100 |  | > 100 |  | > 100 |  |  | > 100 |
| CC1=[N+]([O-])C(C)(C)N(O)C1(C)C |  | > 100 |  | > 100 |  | > 100 |  | > 100 | > 100 |  | > 100 |  | > 100 |  | > 100 |  | > 100 |  | > 100 |  |
